From US11820870B2, “Photocontrolled dynamic covalent linkers for polymer networks” (Northwestern University, priority 2018, dated 2023)

Experiments:
[1] = Pseudo-first-order reversible esterification with pinacol (LCMS kinetics); assay type: physicochemical
Description: A small-molecule model compound, azobenzene 1, was first designed, in which the boronic acid was positioned ortho to the azo group (FIG. 5). Irradiation of (E)-1 with 365-nm light provided a 88:12 mixture of Z and E isomers. This mixture was subjected to excess pinacol in acetonitrile-water (1:1 v/v, 25° C.) to determine the apparent rates and equilibrium constants of boronic acid (1) esterification and boronic ester (2) hydrolysis for each isomer. While other 1,2- and 1,3-diols were hydrolyzed too quickly to be studied, the unusually slow rate of pinacol hydrolysis allowed the E and Z isomers to be resolved and their reaction kinetics to be monitored by high-performance liquid chromatography (HPLC; see Supporting Information (SI) for details).
After 8 hours, the reactions had reached equilibrium, with 39% conversion of (Z)-1 to (Z)-2 and only 9% conversion of (E)-1 to (E)-2 (FIG. 6A). Using a reversible pseudo-first-order kinetic model, it was determined that the esterification of (Z)-1 was 2.1 times faster than the esterification of (E)-1 (k1) (FIG. 6B, Table 1). The rates of hydrolysis could also be extracted from this model: (E)-2 underwent hydrolysis 2.0 times faster than (Z)-2 did (k−1). These apparent rate constants for hydrolysis were verified by hydrolyzing a mixture of (E)-2 and (Z)-2 under irreversible pseudo-first-order conditions (FIGS. 6C and 6D). Taken together, the apparent equilibrium to form boronic ester from boronic acid and pinacol is 4.3 times more favorable for the Z isomer relative to the E isomer. While convenient for small-molecule kinetic studies, the rate of pinacol ester formation is too slow to be practical for gelation. Thus, a less sterically hindered diol was used for hydrogel studies.
Stock solutions of (E)-1 or (E)-2 were prepared in acetonitrile at 800 μM. Serial dilutions were performed to obtain a final concentration of 12.5 μM. The solutions were directly injected onto the LCMS (Poroshell 120 column, EC-C18, 2.7 μm, 2.1×50 mm). Runs were ten minutes long with solvent gradient from 50:50 to 100:0 ACN:H2O in the first three minutes. Detection was performed at 254 nm with a variable-wavelength detector. The peak area for each concentration was recorded. A calibration curve was created. […] The concentration of the Z-isomer can be calculated from the known concentration of the E-isomer (based on the previously-generated calibration curve).
500 μL of a stock solution of 800 μM of (E)-1 was diluted with 500 μL of 80 mM of pinacol in DI water. The concentrations of (E)-1 and (E)-2 were monitored as a function of time using the above LCMS method. The observed rate constants of esterification (k1(E)) and hydrolysis (k−1(E)) were determined using the derivation shown below.
The data from the concentrations vs. time experiments was fit to the linear expression (1) for a reversible first order reaction and yields the slope denoted as equation (4). […] With the apparent equilibrium constant and slope known, the rates of hydrolysis can be determined with equation (5), and subsequently the rate of esterification can be determined.
500 μL of a stock solution of 800 μM of (E)-1 was irradiated with a 365 nm flashlight for 10 minutes to produce a mixture of (E)-1 and (Z)-1. The mixture was then diluted with 500 μL of a 80 mM pinacol solution in DI water, and the concentrations of (E)-2 and (Z)-2 were monitored as a function of time using the above LCMS method. […]

[2] = Pseudo-first-order irreversible hydrolysis of boronic ester (LCMS kinetics); assay type: physicochemical; details: obtained from the irreversible hydrolysis experiments; 1:1 ACN:H2O; average of three experiments
Description: After 8 hours, the reactions had reached equilibrium, with 39% conversion of (Z)-1 to (Z)-2 and only 9% conversion of (E)-1 to (E)-2 (FIG. 6A). Using a reversible pseudo-first-order kinetic model, it was determined that the esterification of (Z)-1 was 2.1 times faster than the esterification of (E)-1 (k1) (FIG. 6B, Table 1). The rates of hydrolysis could also be extracted from this model: (E)-2 underwent hydrolysis 2.0 times faster than (Z)-2 did (k−1). These apparent rate constants for hydrolysis were verified by hydrolyzing a mixture of (E)-2 and (Z)-2 under irreversible pseudo-first-order conditions (FIGS. 6C and 6D). […]
Stock solutions of (E)-1 or (E)-2 were prepared in acetonitrile at 800 μM. […] The peak area for each concentration was recorded. […] The concentration of the Z-isomer can be calculated from the known concentration of the E-isomer (based on the previously-generated calibration curve).
500 μL of a stock solution of 800 μM of (E)-2 was irradiated with a 365 nm flashlight for 10 minutes to produce a mixture of (E)-2 and (Z)-2. The mixture was then diluted with 500 μL of DI H2O and the concentration of (E)-2 and (Z)-2 was monitored as a function of time. The observed rate constants of hydrolysis k−1(E) and k−1(Z) were determined using the derivation shown below. […]

[3] = reversible esterification, 400 μM with 40 mM pinacol, 1:1 ACN:H2O, 25° C., average of three experiments

conversion of boronic acid to boronic ester at equilibrium ([1]; after 8 hours, excess pinacol, acetonitrile-water 1:1 v/v, 25° C.) | Keq [a] apparent equilibrium constant [1, 3] | Structure (SMILES) | k1 [a] apparent rate constant of esterification [1, 3] | k−1 [a] apparent rate constant of hydrolysis ([1]; obtained from the reversible esterification experiment, 1:1 ACN:H2O, average of three experiments) | hydrolysis rate (k−1), times faster than (Z)-2 ([1]; ratio E isomer to Z isomer) | k−1 [b] apparent rate constant of hydrolysis [2]
9% | 0.090 ± 0.016 | COC(=O)c1ccc(/N=N/c2ccccc2B(O)O)cc1 [(E)-1, (E)-(2-((4-(methoxycarbonyl)phenyl)diazinyl)phenyl)boronic acid] | 2.56 ± 0.28 × 10^−5 s^−1 |  |  | 
 |  | COC(=O)c1ccc(/N=N/c2ccccc2B2OC(C)(C)C(C)(C)O2)cc1 [(E)-2, Methyl (E)-4-((2-(4,4,5,5-tetramethyl-1,3,2,-dioxaborolan-2-yl)phenyl)diazinyl)benzoate] |  | 2.76 ± 0.32 × 10^−4 s^−1 | 2.0 times | 2.83 ± 0.06 × 10^−4 s^−1
